# Measured values as given in patent publication US6153587A, “Conformationally constrained LH-RH analogues, their uses and pharmaceutical compositions containing them” (Laboratoire THERAMEX, priority 1996, dated 2000).
# Where “and” joins values, the source holds several entries; their conditions need not be identical. Equal values may be shown once. Read-outs that look alike come from different tables or passages of the source. Where a SMILES comes first, the peptide text is derived from it. [ ]: non-standard residue; d: D form. The star is where a group is joined. dPhe(4-Cl) = N[C@H](Cc1ccc(Cl)cc1)C(=O)O; d2Nal = N[C@H](Cc1ccc2ccccc2c1)C(=O)O; Lys(iPr) = CC(C)NCCCC[C@H](N)C(=O)O; d3Pal = N[C@H](Cc1cccnc1)C(=O)O; Nicotinoyl = O=C(c1cccnc1)*
# How the values were obtained:
# LH-RH receptors [1] = target: T1, LH-RH receptors (Rattus norvegicus, UniProt P30969); test: Affinity for LH-RH receptors: [125I]-buserelin binding to rat pituitary membranes; conditions: for Ki: 2 hours at 4° C., Ki from IC50 by Cheng-Prusoff
# T1 construct: from tissue; host or cells: rat pituitary membrane fraction (female Sprague Dawley)
# T1 sequence (P30969 1-327): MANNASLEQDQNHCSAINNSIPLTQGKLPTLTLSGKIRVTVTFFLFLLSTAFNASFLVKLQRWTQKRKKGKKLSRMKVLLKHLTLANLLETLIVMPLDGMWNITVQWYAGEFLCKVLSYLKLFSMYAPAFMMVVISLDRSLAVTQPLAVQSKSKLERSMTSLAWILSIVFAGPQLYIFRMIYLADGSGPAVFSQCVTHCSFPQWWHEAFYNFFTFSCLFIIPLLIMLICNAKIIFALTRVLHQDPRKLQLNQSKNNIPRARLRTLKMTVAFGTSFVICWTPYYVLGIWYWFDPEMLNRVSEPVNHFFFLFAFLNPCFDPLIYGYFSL
# Protocol: This affinity has been determined according to the following method:
# Pituitaries from female Sprague Dawley rats were removed and homogenized with a Potter homogenizer in a 25 mM HEPES buffer (pH 7.4) containing 0.32 M sucrose, 100 μg/l PMSF (phenylmethylsulfonylfluoride), 5.6 U/l aprotinin and 10,000 U/l bacitracin. The homogenates were centrifuged at 700 g for 10 minutes and the supernatants were further centrifuged at 12,500 g for 30 minutes. The pellets were homogenized and centrifuged as described above, in the same buffer but without sucrose.
# All homogenization, centrifugation and subsequent incubation steps were carried out at 4° C.
# The assay was terminated by filtration under suction (Brandel 96-well harvester) through Whatman GF/B glass fiber filters. […] Each compound was tested in at least 4 experiments.
# Specific binding data were analysed according to Scatchard's method.
# For each test compound, the inhibitory constant (Ki) was calculated from its IC50 according to the Cheng and Prussofs equation: Ki=IC50 /(1+[radioligand]/Kd). Ki was then transformed into pKi (=-log Ki) for final expression of affinity scales.
# LH-RH receptors [2] = target: T1, LH-RH receptors; test: Total plasma testosterone in male Sprague-Dawley rats after subcutaneous injection; assay type: in vivo; conditions: 30 nanograms/kg subcutaneous; for Total testosterone: plasma at two hours, male Sprague-Dawley rats
# Protocol: (§1) The peptides according to the general formula (IIa) exert an agonist activity upon the LH-RH receptors in vivo, resulting in the induction of ovulation in the female and in the stimulation of testosterone secretion in the male following acute subcutaneous administration.
# Adult male Sprague-Dawley rats are treated by a subcutaneous injection of LH-RH agonists at the same dose of 30 nanograms/kg dissolved in PBS. Two hours later, blood samples are drawn for total plasma testosterone measurement by direct radioimmunoassay (Immunotech). At this dose, LH-RH itself is not active standard LH-RH agonists and selected examples according to formula (Ila) are compared in Table 3 below: […]
# LH-RH receptors [3] = target: T1, LH-RH receptors; test: Induction of ovulation in pentobarbital-blocked female Wistar rats; assay type: in vivo; conditions: subcutaneous
# Protocol: as §1
# Adult female Wistar rats are first monitored for normal estrous cyclicity by daily vaginal smears. After at least 2 regular 4-day cycles, they all receive an intraperitoneal injection of 50 mg/kg of sodium pentobarbital around 2:00 PM on the day of proestrus, which blocks the spontaneous ovulation in the negative control animals receiving in addition only the subcutaneous vehicle (PBS: phosphate buffered saline, 0.05 M, pH 7.4 containing 0.1% bovine serum albumin). At the same time, test animals are injected subcutaneously with LH-RH, standard LH-RH agonists or examples according to the formula (Ha), at various doses in solution in the vehicle described above. The following morning, the oviducts are excised and carefully dissected to search for ovocytes. None are found in the negative pentobarbital-blocked animals.
# If effective, LH-RH agonists induce ovulation during the night between proestrus and estrus. The percentage of ovulating female rats, defined by the presence of at least one ovocyte in one of the two oviducts, is plotted as a function of the injected dose.
# LH-RH receptors [4] = target: T1, LH-RH receptors; test: Inhibition of ovulation in female Wistar rats; assay type: in vivo
# Protocol: The peptides according to the general formula (IIb) exert an antagonist activity upon the LH-RH receptors in vivo, resulting in the inhibition of ovulation in the female.
# Adult female Wistar rats are first monitored for normal estrous cyclicity by daily vaginal smears. After at least 2 regular 4-day cycles, they received by subcutaneous injection either the vehicle alone (0.5 ml of a mixture of propylene-glycol and water: 20/80 vol/vol), or the LH-RH antagonist according to the formula (IIb) dissolved in this vehicle, around 2:00 PM on the day of proestrus.
# If effective, LH-RH antagonists totally block ovulation. […] The 50% inhibitory dose of antide is slightly lower than 1 μg/rat.
# [5] = 20 to 70 μM [125I]-buserelin, read-out: pKi (affinity for LH-RH receptors) (converted)
# [6] = pKi (affinity for LH-RH receptors), [125I]-buserelin
Compound,Ki (LH-RH receptors [1]; [5]),IC50 range in words (LH-RH receptors [1]; [125I]-buserelin),Total testosterone (LH-RH receptors [2]),ED50 (dose producing 50% of ovulation) (LH-RH receptors [3]),also measured
CCNC(=O)[C@@H]1CCCN1C(=O)[C@H](CCCNC(=N)N)NC(=O)[C@H](CC(C)C)NC(=O)[C@@H](Cc1cn(Cc2ccccc2)cn1)NC(=O)[C@H](Cc1ccc(O)cc1)NC(=O)[C@H](CO)NC(=O)[C@H](Cc1c[nH]c2ccccc12)NC(=O)[C@H](Cc1cnc[nH]1)NC(=O)[C@@H]1CCC(=O)N1 [Histrelin],< 1 nM and 0.105 nM,subnanomolar range,12.7 ± 1.9 ng/mL,,
CCNC(=O)[C@@H]1CCCN1C(=O)[C@H](CCCN=C(N)N)NC(=O)[C@H](CC(C)C)NC(=O)[C@@H](Cc1c[nH]c2ccccc12)NC(=O)[C@H](Cc1ccc(O)cc1)NC(=O)[C@H](CO)NC(=O)[C@H](Cc1c[nH]c2ccccc12)NC(=O)[C@H](Cc1cnc[nH]1)NC(=O)[C@@H]1CCC(=O)N1 [Deslorelin],< 1 nM and 0.126 nM,subnanomolar range,,4.8 nanograms/rat,
CCNC(=O)[C@@H]1CCCN1C(=O)[C@H](CCCNC(=N)N)NC(=O)[C@H](CC(C)C)NC(=O)[C@@H](CC(C)C)NC(=O)[C@H](Cc1ccc(O)cc1)NC(=O)[C@H](CO)NC(=O)[C@H](Cc1c[nH]c2ccccc12)NC(=O)[C@H](Cc1c[nH]cn1)NC(=O)[C@@H]1CCC(=O)N1 [Leuprorelin],,,11.9 ± 1.5 ng/mL,1.9 nanograms/rat,
CC(C)C[C@H](NC(=O)[C@@H](COC(C)(C)C)NC(=O)[C@H](Cc1ccc(O)cc1)NC(=O)[C@H](CO)NC(=O)[C@H](Cc1c[nH]c2ccccc12)NC(=O)[C@H](Cc1cnc[nH]1)NC(=O)[C@@H]1CCC(=O)N1)C(=O)N[C@@H](CCCNC(=N)N)C(=O)N1CCC[C@H]1C(=O)NNC(N)=O [Goserelin],,,15.0 ± 2.5 ng/mL,4.3 nanograms/rat,Ki (LH-RH receptors [1]; [6]): 2.63 nM
CC(=O)N[C@H](Cc1ccc2ccccc2c1)C(=O)N[C@H](Cc1ccc(Cl)cc1)C(=O)N[C@H](Cc1cccnc1)C(=O)N[C@@H](CO)C(=O)N[C@@H](CCCCNC(=O)c1cccnc1)C(=O)N[C@H](CCCCNC(=O)c1cccnc1)C(=O)N[C@@H](CC(C)C)C(=O)N[C@@H](CCCCNC(C)C)C(=O)N1CCC[C@H]1C(=O)N[C@H](C)C(N)=O [Antide] (Ac-[d2Nal][dPhe(4-Cl)][d3Pal]SK(Nicotinoyl)[dK](Nicotinoyl)L[Lys(iPr)]P[dA]-NH2; N-terminus and C-terminus assumed),0.603 nM,subnanomolar range,,,"Number of ovulating females/total number of treated females (LH-RH receptors [4]; dose 0.5 μg/rat subcutaneous): 4/5; Number of ovulating females/total number of treated females (LH-RH receptors [4]; dose 1 μg/rat subcutaneous): 5/16; Number of ovulating females/total number of treated females (LH-RH receptors [4]; dose 2.5 μg/rat subcutaneous): 2/6; Number of ovulating females/total number of treated females (LH-RH receptors [4]; dose 5 μg/rat subcutaneous): 0/11; Number of ovulating females/total number of treated females (LH-RH receptors [4]; dose 10 μg/rat subcutaneous): 0/8; 50% inhibitory dose (LH-RH receptors [4]; inhibition of ovulation, subcutaneous): lower than 1 μg/rat"
CCNC(=O)[C@@H]1CCCN1C(=O)[C@H](CCCNC(=N)N)NC(=O)[C@H](CC(C)C)NC(=O)[C@@H](COC(C)(C)C)NC(=O)[C@H](Cc1ccc(O)cc1)NC(=O)[C@H](CO)NC(=O)[C@H](Cc1c[nH]c2ccccc12)NC(=O)[C@H](Cc1cnc[nH]1)NC(=O)[C@@H]1CCC(=O)N1 [Buserelin],,subnanomolar range,15.4 ± 0.71 ng/mL,,Ki (LH-RH receptors [1]; [6]): < 1 nM and 0.427 nM
CC(C)C[C@H](NC(=O)CNC(=O)[C@H](Cc1ccc(O)cc1)NC(=O)[C@H](CO)NC(=O)[C@H](Cc1c[nH]c2ccccc12)NC(=O)[C@H](Cc1c[nH]cn1)NC(=O)[C@@H]1CCC(=O)N1)C(=O)N[C@@H](CCCNC(=N)N)C(=O)N1CCC[C@H]1C(=O)NCC(N)=O [LH-RH],,,,15 nanograms/rat,"activity on testosterone secretion, in words (LH-RH receptors [2]): not active"
"CCNC(=O)[C@@H]1CCCN1C(=O)[C@H](CCCNC(=N)N)NC(=O)[C@H](CC(C)C)N1CC[C@@]2(CCCN2C(=O)[C@H](Cc2ccc(O)cc2)NC(=O)[C@H](CO)NC(=O)[C@H](Cc2ccc3ccccc3c2)NC(=O)[C@H](Cc2c[nH]cn2)NC(=O)CN(C)C(C)=O)C1=O [Example 13, AcSar-His-Nal-Ser-Tyr-SPL-Leu-Arg-Pro-NEt]",1.05 nM,,,,
"CCNC(=O)[C@@H]1CCCN1C(=O)[C@H](CCCNC(=N)N)NC(=O)[C@H](CC(C)C)N1CC[C@@]2(CCCN2C(=O)[C@H](Cc2ccc(O)cc2)NC(=O)[C@H](CO)NC(=O)[C@H](Cc2c[nH]c3ccccc23)NC(=O)[C@H](Cc2c[nH]cn2)NC(=O)[C@@H]2CCC(=O)N2)C1=O [Example 9, pGlu-His-Trp-Ser-Tyr-SPL-Leu-Arg-Pro-NEt]",1.15 nM,,,,
CC(C)C[C@H](NC(=O)[C@@H](Cc1c[nH]c2ccccc12)NC(=O)[C@H](Cc1ccc(O)cc1)NC(=O)[C@H](CO)NC(=O)[C@H](Cc1c[nH]c2ccccc12)NC(=O)[C@H](Cc1c[nH]cn1)NC(=O)[C@@H]1CCC(=O)N1)C(=O)N[C@@H](CCCNC(=N)N)C(=O)N1CCC[C@H]1C(=O)NCC(N)=O [Tryptorelin],< 1 nM and 0.141 nM,subnanomolar range,12.1 ± 0.7 ng/mL,2.9 nanograms/rat,
"CCNC(=O)[C@@H]1CCCN1C(=O)[C@H](CCCNC(=N)N)NC(=O)[C@H](CC(C)C)N1CC[C@@]2(CCCN2C(=O)[C@H](Cc2ccc(O)cc2)NC(=O)[C@H](CO)NC(=O)[C@H](Cc2c[nH]c3ccccc23)NC(=O)[C@H](Cc2c[nH]cn2)NC(=O)CN(C)C(C)=O)C1=O [Example 10, AcSar-His-Trp-Ser-Tyr-SPL-Leu-Arg-Pro-NEt]",6.17 nM,,,,
